We go through 1 compound from patent US9504699B2, “Delayed-release glucocorticoid treatment of rheumatoid disease” (Horizon Pharma AG, priority 2006, dated 2016).

Holding throughout (type): in vivo, human
Data set [1] has as its system adult RA patients. In words: 9-month open follow-up on Prednisone delayed-release: duration of morning stiffness. The settings on record: prednisone = all subjects. An excerpt:
Although efficacy was not the main objective of this open follow-up study, the order of reporting was kept the same as in the previous study report on the double-blind phase. […] Mean Daily Duration of Morning Stiffness
The mean daily duration of morning stiffness at start of the double-blind period (Visit 2), at start of the open follow-up period (Visit 5) and at end of study (Visit 8) as well as the relative changes are presented in Table 10 and FIG. 2 for the study population.
Taking advantage of the higher number of available data, the interpretation of the results was carried out for the total numbers.

Data set [2] relates to adult RA patients. In words: Phase III study, double-blind phase: adverse events.
Data set [3] relates to CRP. In words: 9-month open follow-up: CRP. The settings on record: after 12 weeks double-blind, by group; prednisone = Total. An excerpt: The median values of the inflammatory signs CRP and IL-6 during the open follow-up period (Visit 5 to Visit 8) and the respective absolute changes are presented in Table 12 and FIG. 3.
Where [4] appears, read: after 12 weeks double-blind, by group.
Where [5] appears, read: subjects of open follow-up, by double-blind group.
[6] abbreviates: 12-week double-blind phase, prednisone = Total.

`C[C@]12C=CC(=O)C=C1CC[C@@H]1[C@@H]2C(=O)C[C@@]2(C)[C@H]1CC[C@]2(O)C(=O)CO` [prednisone]: in data set [1] (setting [4]), the “Duration of morning stiffness, Visit 5 (Start of Follow-up Period), mean” value is 125.56 min and the “Duration of morning stiffness, Visit 5 (Start of Follow-up Period), median” value amounted to 83.93 min. In data set [1] (setting [5]), the “Duration of morning stiffness, Visit 2 (Start of Double-blind Period), mean” value was 169.80 min and the “Duration of morning stiffness, Visit 2 (Start of Double-blind Period), median” value is reported as 143.21 min. Besides, the “All AEs (at least one treatment-emergent AE)” value in data set [2] (12-week double-blind phase, label prednisone = Total of both groups (N = 288)) is 118 (41.0) No. (%) subjects. In addition, in data set [2] (setting [6]), the “AE: Abdominal pain (Upper)” value is listed as 13 (4.5) No. (%) subjects, the “AE: Flushing” value is 10 (3.5) No. (%) subjects, the “AE: Headache” value was 10 (3.5) No. (%) subjects and the “AE: Nasopharyngitis (values printed on the line headed 'Upper')” value was 12 (4.2) No. (%) subjects. For the same compound, in data set [2] (setting [6]), the “AE: Nausea” value is listed as 9 (3.1) No. (%) subjects, the “AE: Rheumatoid arthritis” value is listed as 24 (8.3) No. (%) subjects, the “Drug-related AE: Abdominal pain (Upper)” value is listed as 7 (2.4) No. (%) subjects and the “Drug-related AE: Headache” value was 6 (2.1) No. (%) subjects. Further, in data set [2] (setting [6]), the “Drug-related AE: Nausea (values printed on the line headed 'Upper')” value is 6 (2.1) No. (%) subjects and the “Drug-related AE: Rheumatoid arthritis” value is 5 (1.7) No. (%) subjects. Further, the SAEs result in data set [2] (double-blind phase, both groups, 2.4%) is listed as “Seven”. In data set [2] (double-blind phase, both groups, 7.6%), the “AEs causing discontinuation of prednisone” value came to 22 subjects. Further, the “SAE judged to be related to prednisone by the investigator” value in data set [2] (of the 7 subjects with SAEs) is given as “one”. The “CRP (median), Visit 5 (Start of Follow-up)” value in data set [3] is 9.40 (n = 249) mg/L.
